Measurements from patent publication US7625841B2, “Substituted thiene-3-ylsulphonylamino(thio)carbonyltriazolin(ethi)ones” (Bayer CropScience AG, priority 2001, dated 2009).

Legend:
Format in all cases: in vivo
Alopecurus [1] = assay: Post-emergence test/greenhouse; conditions: greenhouse, application rate 15 gai/ha, rated after three weeks, 0%=no effect, 100%=total destruction
Method: (§1) • Solvent: 5 parts by weight of acetone • Emulsifier: 1 part by weight of alkylaryl polyglycol ether
(§2) To produce a suitable preparation of active compound, 1 part by weight of active compound is mixed with the stated amount of solvent, the stated amount of emulsifier is added and the concentrate is diluted with water to the desired concentration.
(§3) Test plants of a height of 5-15 cm are sprayed with the preparation of active compound such that the particular amounts of active compound desired are applied per unit area. The concentration of the spray liquor is chosen such that the particular amounts of active compound desired are applied in 1000 l of water/ha.
(§4) After three weeks, the degree of damage to the plants is rated in % damage in comparison to the development of the untreated control.
(§5) The figures denote: • 0%=no effect (like untreated control) • 100%=total destruction

Avena fatua [2] = assay: Post-emergence test/greenhouse; conditions: greenhouse, application rate 15 gai/ha, rated after three weeks, 0%=no effect, 100%=total destruction
Method: as §1, §2, §3, §4, §5

Bromus [3] = assay: Post-emergence test/greenhouse; conditions: greenhouse, application rate 15 gai/ha, rated after three weeks, 0%=no effect, 100%=total destruction
Method: as §1, §2, §3, §4, §5

Digitaria = assay: Post-emergence test/greenhouse; conditions: greenhouse, application rate 15 gai/ha, rated after three weeks, 0%=no effect, 100%=total destruction
Method: as §1, §2, §3, §4, §5

Echinochloa = assay: Post-emergence test/greenhouse; conditions: greenhouse, application rate 15 gai/ha, rated after three weeks, 0%=no effect, 100%=total destruction
Method: as §1, §2, §3, §4, §5

Lolium [4] = assay: Post-emergence test/greenhouse; conditions: greenhouse, application rate 15 gai/ha, rated after three weeks, 0%=no effect, 100%=total destruction
Method: as §1, §2, §3, §4, §5

Setaria [5] = assay: Post-emergence test/greenhouse; conditions: greenhouse, application rate 15 gai/ha, rated after three weeks, 0%=no effect, 100%=total destruction
Method: as §1, §2, §3, §4, §5

maize [6] = assay: Post-emergence test/greenhouse; conditions: greenhouse, application rate 15 gai/ha, rated after three weeks, 0%=no effect, 100%=total destruction
Method: as §1, §2, §3, §4, §5

Alopecurus [7] = assay: Pre-emergence test/greenhouse; conditions: greenhouse, application rate 15 gai/ha, rated after three weeks, 0%=no effect, 100%=total destruction
Method: as §1
(§6) To produce a suitable preparation of active compound, 1 part by weight of active compound is mixed with the stated amount of solvent, the stated amount of emulsifier is added and the concetrate is diluted with water to the desired concentration.
(§7) Seeds of the test plants are sown in normal soil. After 24 hours, the soil is sprayed with the preparation of active compound such that the particular amount of active compound desired is applied per unit area. The concentration of active compound in the spray liquor is chosen such that the particular amount of active compound desired is applied in 1000 litres of water per hectare.
(§8) After three weeks, the degree of damage to the plants is rated in % damage in comparison to the development of the untreated control. The figures denote: • 0%=no effect (like untreated control) • 100%=total destruction

Amaranthus = assay: Pre-emergence test/greenhouse; conditions: greenhouse, application rate 15 gai/ha, rated after three weeks, 0%=no effect, 100%=total destruction
Method: as §1, §6, §7, §8

Matricaria = assay: Pre-emergence test/greenhouse; conditions: greenhouse, application rate 15 gai/ha, rated after three weeks, 0%=no effect, 100%=total destruction
Method: as §1, §6, §7, §8

Setaria [8] = assay: Pre-emergence test/greenhouse; conditions: greenhouse, application rate 15 gai/ha, rated after three weeks, 0%=no effect, 100%=total destruction
Method: as §1, §6, §7, §8

Stellaria = assay: Pre-emergence test/greenhouse; conditions: greenhouse, application rate 15 gai/ha, rated after three weeks, 0%=no effect, 100%=total destruction
Method: as §1, §6, §7, §8

maize [9] = assay: Pre-emergence test/greenhouse; conditions: greenhouse, application rate 15 gai/ha, rated after three weeks, 0%=no effect, 100%=total destruction
Method: as §1, §6, §7, §8

soybeans = assay: Pre-emergence test/greenhouse; conditions: greenhouse, application rate 15 gai/ha, rated after three weeks, 0%=no effect, 100%=total destruction
Method: as §1, §6, §7, §8

wheat [10] = assay: Pre-emergence test/greenhouse; conditions: greenhouse, application rate 15 gai/ha, rated after three weeks, 0%=no effect, 100%=total destruction
Method: as §1, §6, §7, §8

weeds [11] = assay: Post-emergence test, summary for weeds
Method: as §1, §2, §3, §4, §5

[12] = test system: crop plants such as, for example, maize, oilseed rape and wheat; assay: Post-emergence test, summary for crop plants
Method: as §1, §2, §3, §4, §5

weeds [13] = assay: Pre-emergence test, summary for weeds
Method: as §1, §6, §7, §8

[14] = test system: crop plants, such as, for example, maize, soyabean and wheat; assay: Pre-emergence test, summary for crop plants
Method: as §1, §6, §7, §8

Viola = assay: Post-emergence test/greenhouse; conditions: greenhouse, application rate 15 gai/ha, rated after three weeks, 0%=no effect, 100%=total destruction
Method: as §1, §2, §3, §4, §5

Xanthium = assay: Post-emergence test/greenhouse; conditions: greenhouse, application rate 15 gai/ha, rated after three weeks, 0%=no effect, 100%=total destruction
Method: as §1, §2, §3, §4, §5

Avena fatua [15] = assay: Pre-emergence test/greenhouse; conditions: greenhouse, application rate 15 gai/ha, rated after three weeks, 0%=no effect, 100%=total destruction
Method: as §1, §6, §7, §8

Lolium [16] = assay: Pre-emergence test/greenhouse; conditions: greenhouse, application rate 15 gai/ha, rated after three weeks, 0%=no effect, 100%=total destruction
Method: as §1, §6, §7, §8

Polygonum = assay: Pre-emergence test/greenhouse; conditions: greenhouse, application rate 15 gai/ha, rated after three weeks, 0%=no effect, 100%=total destruction
Method: as §1, §6, §7, §8

wheat [17] = assay: Post-emergence test/greenhouse; conditions: greenhouse, application rate 15 gai/ha, rated after three weeks, 0%=no effect, 100%=total destruction
Method: as §1, §2, §3, §4, §5

Bromus [18] = assay: Pre-emergence test/greenhouse; conditions: greenhouse, application rate 15 gai/ha, rated after three weeks, 0%=no effect, 100%=total destruction
Method: as §1, §6, §7, §8

Solanum = assay: Pre-emergence test/greenhouse; conditions: greenhouse, application rate 15 gai/ha, rated after three weeks, 0%=no effect, 100%=total destruction
Method: as §1, §6, §7, §8

Structure (SMILES)	degree of damage to the plants, Alopecurus (Alopecurus [1]) [%]	degree of damage to the plants, Avena fatua (Avena fatua [2]) [%]	degree of damage to the plants, Bromus (Bromus [3]) [%]	degree of damage to the plants, Digitaria (Digitaria) [%]	degree of damage to the plants, Echinochloa (Echinochloa) [%]	degree of damage to the plants, Lolium (Lolium [4]) [%]	degree of damage to the plants, Setaria (Setaria [5]) [%]	degree of damage to the plants, Alopecurus (Alopecurus [7]) [%]	degree of damage to the plants, Amaranthus (Amaranthus) [%]	degree of damage to the plants, Matricaria (Matricaria) [%]	degree of damage to the plants, Stellaria (Stellaria) [%]	degree of damage to the plants, maize (maize [9]) [%]	degree of damage to the plants, wheat (wheat [10]) [%]	activity against weeds compared with the known compounds (A) and (B) (weeds [11])	compatibility with crop plants compared with the known compounds (A) and (B) [12]	activity against weeds compared with the known compounds (A) to (G) (weeds [13])	tolerance by crop plants [14]	degree of damage to the plants, Viola (Viola) [%]	degree of damage to the plants, Lolium (Lolium [16]) [%]	degree of damage to the plants, Polygonum (Polygonum) [%]	other results
COCc1nn(C(=O)NS(=O)(=O)c2c(C(=O)OC)csc2C)c(=O)n1C [Example 18]	95	95	80	95	95	95	100	95	95	100	95	0	0	considerably stronger activity against weeds	substantially better compatibility with crop plants	considerably stronger activity against weeds	tolerated well by crop plants				degree of damage to the plants, maize (maize [6]): 0%; degree of damage to the plants, Setaria (Setaria [8]): 95%; degree of damage to the plants, soybeans (soybeans): 0%
CCCc1nn(C(=O)NS(=O)(=O)c2c(C(=O)OC)csc2C)c(=O)n1C1CC1 [Example 48]		90		90	95	100	80		100	95	100			considerably stronger activity against weeds	substantially better compatibility with crop plants	considerably stronger activity against weeds	tolerated well by crop plants	95	95	95	degree of damage to the plants, Xanthium (Xanthium): 90%; degree of damage to the plants, Avena fatua (Avena fatua [15]): 95%
COC(=O)c1csc(C)c1S(=O)(=O)NC(=O)n1nc(C2CC2)n(C)c1=O [Example 22]	99	80	95	95			90	95			100	0	0	considerably stronger activity against weeds	substantially better compatibility with crop plants	considerably stronger activity against weeds	tolerated well by crop plants		95	95	degree of damage to the plants, maize (maize [6]): 0%; degree of damage to the plants, wheat (wheat [17]): 0%; degree of damage to the plants, Bromus (Bromus [18]): 100%; degree of damage to the plants, Solanum (Solanum): 100%
CCc1nn(C(=O)NS(=O)(=O)c2c(C(=O)OC)csc2C)c(=O)n1C1CC1 [Example 47]		95	80	90	95	100	90		100	100	100			considerably stronger activity against weeds	substantially better compatibility with crop plants	considerably stronger activity against weeds	tolerated well by crop plants	100	80	90	degree of damage to the plants, Xanthium (Xanthium): 80%; degree of damage to the plants, Avena fatua (Avena fatua [15]): 95%; degree of damage to the plants, Setaria (Setaria [8]): 95%
CCSc1nn(C(=O)NS(=O)(=O)c2c(C(=O)OC)csc2C)c(=O)n1C [Example 20]	90		80		100			90	95	100	100	0	0	considerably stronger activity against weeds	substantially better compatibility with crop plants	considerably stronger activity against weeds	tolerated well by crop plants	100	95		degree of damage to the plants, wheat (wheat [17]): 0%; degree of damage to the plants, Solanum (Solanum): 100%; degree of damage to the plants, soybeans (soybeans): 0%
